From patent US10561681B2, “Antimetastatic 2H-selenopheno[3,2-h]chromenes, synthesis thereof, and methods of using same agents” (Latvian Institute of Organic Synthesis, priority 2016, dated 2020)
Several values for one entry are separate records, joined by “and”; a condition that tells them apart may be missing. Identical values can stand only once. Marks after values point to notes of the source that are not given here.

Columns and labels:
[1] = test system: mouse sarcoma CCRF-S180 II (CCL-8); experiment: Mouse non-metastatic cancer model, sarcoma CCL-8 s.c. in ICR mice; type: in vivo; conditions: s.c. Day 1, 2, 3, 4, 7, 8, 9, 10, 11; dose 5 mg/kg, total dose 45 mg/kg
Protocol: Six-week-old female ICR and BALB/c mice were purchased from the University of Tartu Laboratory Animal Centre (Estonia). The mice were housed five to a cage, and under standard conditions (21-23° C., 12 h light: dark cycle), fed ad libitum (R3 diet, Lactamin AB, Kimstad, Sweden) and observed daily. The experimental procedures involving experimental animals were carried out in accordance with the guidelines of the European Community, local laws and policies, and were approved by the Latvian Animal Protection Ethical Committee, the Food and Veterinary Service, Riga, Latvia.
In vivo studies were performed utilizing the mouse sarcoma CCRF-S180 II (CCL-8) and Lewis lung carcinoma (LLC) cell line. All cell lines were purchased from ATCC. The cells were grown in Dulbecco's modified Eagle's medium (Sigma) supplemented with 10% fetal calf serum (Sigma).
ICR mice were subcutaneously inoculated in the back with 5×10^6 CCL-8 cells and BALB/c mice were inoculated with 1×10^6 LLC (Lewis Lung Carcinoma) cells, which were suspended in 0.1 mL of PBS on day zero of the study. The compounds dissolved in DMSO and then in 0.1 mL water (DMSO final concentration 1%) were injected s.c. Mice in the untreated group were similarly given doses of 0.1 mL of water with DMSO. Tumor volume (tumor volume V=[…], a is maximal and b the minimal tumor diameter) was recorded twice per week. The mice were examined every other day for diseases including appearance, weight and behavior. The mice were sacrificed at day 16 of the experiment by decapitation after ketamine/xylazine anesthesia.

[2] = test system: MG-22A (mouse hepatoma); experiment: In vitro cytotoxicity, MTT test; type: cell-based; conditions: MTT, 72 h, read-out: Cytotoxicity IC50, MG-22A
Protocol: (§1) Anticancer activity of selenopheno[h]chromenes was tested in vitro using cytotoxicity assay. […] About 2-9·10^4 cells/mL (depending on line nature) were placed in 96-well plates immediately after compounds were added to the wells. Untreated cells were used as a control. The plates were incubated for 72 h, 37° C., 5% CO2. The number of surviving cells was determined using 3-(4,5-dimethylthiazol-2-yl)-2,5-diphenyltetrazolinium bromide (MTT). MTT-test: after incubating culture medium was removed and 200 μL fresh medium with 10 mM HEPES was added in each well of the plate, than 20 μL MTT (2 mg/mL in HBSS) was added. After incubation (3 hr, 37° C., 5% CO2), the medium with MTT was removed and 200 μL DMSO were added at once to each sample. The samples were tested at 540 nm on Anthos HT II photometer.

[3] = test system: A549 (human lung carcinoma); experiment: In vitro cytotoxicity, MTT test; type: cell-based; conditions: Homo sapiens, A549, 72 h, MTT, 72 h; read-out: Cytotoxicity IC50, A549
Protocol: as §1

[4] = test system: SH-SY5Y (human neuroblastoma); experiment: In vitro cytotoxicity, MTT test; type: cell-based; conditions: Homo sapiens, SH-SY5Y, 72 h, MTT, read-out: Cytotoxicity IC50, SHSY5Y
Protocol: as §1

[5] = test system: MCF-7 (human breast adenocarcinoma, estrogen-positive); experiment: In vitro cytotoxicity, MTT test; type: cell-based; conditions: MCF7, MTT, 72 h, read-out: Cytotoxicity IC50, MCF-7
Protocol: as §1

[6] = test system: CCL-8 (mouse sarcoma); experiment: In vitro cytotoxicity, MTT test; type: cell-based; conditions: MTT, 72 h, read-out: Cytotoxicity IC50, CCL-8
Protocol: as §1

[7] = test system: HepG2 (human hepatocellular carcinoma); experiment: In vitro cytotoxicity, MTT test; type: cell-based; conditions: HepG2, MTT, 72 h, read-out: Cytotoxicity IC50, HepG2
Protocol: as §1

[8] = test system: MES-SA (human uterus sarcoma); experiment: In vitro cytotoxicity, MTT test; type: cell-based; conditions: MTT, 72 h, read-out: Cytotoxicity IC50, MES-SA
Protocol: as §1

[9] = test system: MDA-MB-435s (human melanoma); experiment: In vitro cytotoxicity, MTT test; type: cell-based; conditions: MTT, 72 h, read-out: Cytotoxicity IC50, MDA-MB-435s
Protocol: as §1

[10] = test system: HT-1080 (human fibrosarcoma); experiment: In vitro cytotoxicity, MTT test; type: cell-based; conditions: HT-1080, MTT, 72 h, read-out: Cytotoxicity IC50, HT-1080
Protocol: as §1

[11] = test system: 3T3 (mouse embryo fibroblasts); experiment: Basal cytotoxicity test, Neutral Red Uptake (NRU) assay; type: cell-based
Protocol: (§2) In parallel, the borderline concentration relevant to the highest tolerated dose has been determined for each compound using the NIH 3T3 (mouse embryo fibroblasts) cell line and the basal cytotoxicity obtained has then been used to predict the starting doses for in vivo acute oral LD50 values in rodents.
(§3) the Neutral Red Uptake (NRU) assay was performed according to the standard protocol of Stokes modified by the NICEATM-ECVAM validation study. The NRU cytotoxicity assay procedure is based on the ability of viable cells to incorporate and bind Neutral Red, a supravitally dye. Balb/c 3T3 (Mouse Swiss Albino embryo fibroblast) cells (9000 cells/well) were placed into 96-well plates for 24 h in Dulbecco's modified Eagle's (DMEM) medium containing 5% fetal bovine serum. The cells were then exposed to the test compounds over a range of […] concentrations (1000, 316, 100, 31, 10, 3, 1 μg/ml) for 24 h. Untreated cells were used as a control. After 24 h, the medium was removed from all plates. Then, 250 μL of Neutral Red solution were added (0.05 mg/mL NR in DMEM 24 h pre-incubated at 37° C. and then filtered before use through 0.22-μm syringe filter). Plates were incubated for 3 h and then cells were washed three times with PBS. The dye within viable cells was released by extraction with a mixture of acetic acid, ethanol and water (1:50:49). Absorbance of Neutral Red was measured using a spectrophotometer multiplate reader (TECAN, Infinite M1000) at 540 nm. The percentage of living cells was calculated using the formula: OD (treated cells)*100/OD (control cells). The IC50 values were calculated using the programme Graph Pad Prism® 3.0.
(§4) Data from the in vitro tests were used for estimating the starting dose for acute oral systemic toxicity tests in rodents. […] The value is recalculated to mg/kg and compounds are evaluated in accordance with four toxicity categories: category 1: LD50≤5 mg/kg (highly toxic); category 2: 5<LD50≤50 mg/kg (moderately toxic); category 3: 50<LD50≤300 mg/kg (slightly toxic); category 4: 300<LD50≤2 000 mg/kg (practically non-toxic).

[12] = as above; type: cell-based
Protocol: as §2, §3, §4

[13] = test system: malignant tumor cells; experiment: In vitro cytotoxicity on monolayer tumor cell lines (panel, summary in words); type: cell-based; conditions: summary of Table 1
Protocol: Anticancer activity of selenopheno[h]chromenes was tested in vitro using cytotoxicity assay. Thus, monolayer tumor cell lines MDA-MB-435s (human melanoma), MCF-7 (human breast adenocarcinoma, estrogen-positive), MES-SA (human uterus sarcoma), HT-1080 (human fibrosarcoma), A549 (human lung carcinoma), SH-SY5Y (human neuroblastoma), CCL-8 (mouse sarcoma), MG-22A (mouse hepatoma), and HepG2 (human hepatocellular carcinoma) were cultured in standard medium DMEM (Dulbecco's modified Eagle's medium) (“Sigma”) supplemented with 10% fetal bovine serum (“Sigma”). About 2-9·10^4 cells/mL (depending on line nature) were placed in 96-well plates immediately after compounds were added to the wells. Untreated cells were used as a control. The plates were incubated for 72 h, 37° C., 5% CO2. The number of surviving cells was determined using 3-(4,5-dimethylthiazol-2-yl)-2,5-diphenyltetrazolinium bromide (MTT). MTT-test: after incubating culture medium was removed and 200 μL fresh medium with 10 mM HEPES was added in each well of the plate, than 20 μL MTT (2 mg/mL in HBSS) was added. After incubation (3 hr, 37° C., 5% CO2), the medium with MTT was removed and 200 μL DMSO were added at once to each sample. The samples were tested at 540 nm on Anthos HT II photometer.

COC(=O)c1cc2ccc3c(Br)c(CN4CCOCC4)[se]c3c2oc1=O [Compound I-9, Methyl 7-bromo-8-(morpholinomethyl)-2-oxo-2H-selenopheno[3,2-h]chromene-3-carboxylate]
Anticancer activity in vivo (inhibition, %), CCL-8 tumor volume [1]: 38** %
IC50 [2]: 48 ± 3 µM
IC50 [3]: 86 ± 6 µM
IC50 [4]: 46 ± 9 µM
IC50 [5]: 81 ± 6 µM
IC50 [6]: 84 ± 6 µM
IC50 [7]: 90 ± 6 µM
IC50 [8]: 54 ± 7 µM
IC50 [9]: 67 ± 8 µM
IC50 [10]: 86 ± 6 µM
Toxicity against normal NIH 3T3 cells [11]: the most toxic among studied chromenes
LD50 at 24 h ([12]; mouse, po, acute oral LD50 calculated from 3T3 NRU IC50 by regression formula, read-out: Basal cytotoxicity Estimated* LD50): 2400 µmol/kg and 1250 mg/kg
IC50 at 24 h ([12]; normal mouse embryo fibroblasts, read-out: Cytotoxicity IC50, 3T3): 56 ± 3 µM
Cytotoxicity on cancer cell lines [13]: medium cytotoxicity
